{"source": "patent US6525087B2", "about": "“Use of known agonists of the central cannabinoid receptor CB1” (Bayer Aktiengesellschaft, priority 1997, dated 2003)", "key": {"glutamate release [1]": {"system": "glutamate release", "test": "Inhibition of glutamate release (rat hippocampus sections, KCl stimulation)", "assay_type": "cell-based", "conditions": "75 mM KCl, ratio S2/S1", "protocol": "Inhibition of Glutamate Release\nAfter decapitation of a rat, the skull is opened, and the brain is lifted out and cut through along the median fissure. The hippocampus is exposed, separated from the remaining tissue, cut into 350 μm thick sections and incubated at 37° C. in straining vessels for 60 min. Followed by basal value and stimulation 1 with 75 mM KCl (S 1), the sections are incubated with test substance and then the stimulation with KCl and test substance (S2) is repeated. The glutamate concentration of the samples to be investigated is then measured by means of an enzymatic reaction (GLDH) and fluorometric measurement of NADH. By means of a calibration curve, the glutamate content of the sample is determined, and with knowledge of the protein content the glutamate content/mg of protein can be calculated. The ratio S2/S1 is compared; glutamate release inhibitors reduce this ratio in a concentration-dependent manner."}, "[2]": {"test": "Hypothermia, agonism testing", "assay_type": "in vivo", "conditions": "rat, i.v.", "protocol": "Five minutes after determination of the basal body temperature via an oesophageal temperature probe, the test substance is administered (i.v.). A control group receives only the solvent for the test substances, likewise i.v. The body temperature is measured 7.5, 15, 30 and 60 minutes after i.v. administration. The group size per dose is 5-7 animals (rats)."}, "[3]": {"test": "Permanent focal cerebral ischaemia in the rat (MCA-O)", "assay_type": "in vivo", "conditions": "2 and 4 h after occlusion, infarct size after 7 days", "protocol": "Permanent Focal Cerebral Ischaemia in the Rat (MCA-O)\nUnder isoflurane anaesthesia, the median cerebral artery is exposed on one side and the latter and its side branches are irreversibly sealed by means of electrocoagulation. As a result of the intervention a cerebral infarct is formed. During the operation, the body temperature of the animal is kept at 37° C. After wound closure and wearing off of the anaesthesia, the animals are again released into their cage. The administration of substances is carried out according to different time schemes and via different administration routes (i.v., i.p.) after occlusion. The infarct size is determined after 7 days. To do this, the brain is removed, worked up histologically and the infarct volume is determined with the aid of a computer-assisted analysis system."}, "[4]": {"test": "Subdural haematoma in the rat (SDH)", "assay_type": "in vivo", "conditions": "2 and 4 h after trauma", "protocol": "Subdural Haematoma in the Rat (SDH)\nUnder anaesthesia, the animals' own blood is injected subdurally on one side. An infarct is formed under the haematoma. Substance administration is carried out according to different time schemes and via different administration routes (i.v., i.p.). The infarct size is determined as described in the model of permanent focal ischaemia in the rat (MCA-O)."}, "[5]": {"target": "T1, rat cannabinoid receptor CB1 (Rattus norvegicus, UniProt P20272)", "T1 construct": "contains an open reading frame of 1419 base pairs which corresponds to a protein of 473 amino acids; expressed in transfected cells; host or cells: CHOluc9 reporter cells, stably transfected with plasmid CMV-RH (pRc/CMV)", "T1 sequence (P20272 whole entry)": "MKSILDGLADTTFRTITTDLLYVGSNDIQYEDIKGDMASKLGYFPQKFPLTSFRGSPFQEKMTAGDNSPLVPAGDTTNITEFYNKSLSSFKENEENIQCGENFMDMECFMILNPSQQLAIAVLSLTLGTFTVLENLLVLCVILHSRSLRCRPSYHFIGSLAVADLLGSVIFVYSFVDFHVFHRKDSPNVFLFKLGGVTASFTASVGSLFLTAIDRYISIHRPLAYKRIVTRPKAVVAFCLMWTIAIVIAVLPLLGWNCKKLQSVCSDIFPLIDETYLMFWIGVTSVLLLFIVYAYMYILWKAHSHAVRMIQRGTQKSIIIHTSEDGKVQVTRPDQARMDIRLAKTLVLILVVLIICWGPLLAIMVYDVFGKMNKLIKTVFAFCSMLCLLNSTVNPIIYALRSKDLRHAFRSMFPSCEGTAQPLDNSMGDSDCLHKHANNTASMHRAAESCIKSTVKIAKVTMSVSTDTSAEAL", "test": "CB1 luciferase reporter gene test", "assay_type": "cell-based", "conditions": "CHOCB1 reporter cell line, forskolin-stimulated"}, "rat cortex membranes": {"target": "T2, rat cortex membranes (Rattus norvegicus, UniProt P20272)", "T2 construct": "Membrane protein is prepared from different tissues or from cells by standard methods; from tissue; host or cells: rat cortex membranes", "T2 sequence (P20272 whole entry)": "as above", "test": "Binding studies on rat cortex membranes", "protocol": "Binding Studies on Rat Cortex Membranes\nMembrane protein is prepared from different tissues or from cells by standard methods. Buffer, labelled ligands, DMSO or test substance are pipetted together, then 100 μg of protein are added, and the mixture is well mixed and incubated in a water bath at 30° C. for 60 min. After expiry of the incubation time, the reaction is stopped by addition of ice-cold incubation buffer to each tube. After filtering off, washing is carried out with ¾ ml of incubation buffer. The filters are transferred to minivials and the radioactivity is determined in a liquid scintillation counter."}, "[6]": {"conditions": "J. Neurotrauma 1993, 10, 109; cited from earlier work"}, "cannabinoid receptor": {"system": "cannabinoid receptor", "conditions": "cited from earlier work"}, "glutamate release [7]": {"system": "glutamate release", "conditions": "Brain Res. references; cited from earlier work"}, "[8]": {"conditions": "Brain Res. references; cited from earlier work"}}, "data": [{"compound": "CCCCCc1cc(O)c2c(c1)OC(C)(C)[C@@H]1CCC(C)=C[C@@H]21", "note": "[Example 1]", "values": [{"measurement": "Inhibition of glutamate release, % Inhibition @ 1 μM", "setting": "glutamate release [1]", "result": "no effect"}, {"measurement": "Hypothermia ED−1°C. (necessary dose to achieve a maximum temperature drop of 1° C.)", "setting": "[2]", "result": 0.8, "unit": "mg/kg i.v."}, {"measurement": "% reduction in the infarct volume", "setting": "[3]; 1.0 mg/kg i.v. bolus directly", "result": 31, "unit": "%"}, {"measurement": "% reduction in the infarct volume", "setting": "[4]; 0.3 mg/kg i.v. bolus directly", "result": 50, "unit": "%"}]}, {"compound": "CCCCCCC(C)(C)c1cc(O)c2c(c1)OC(C)(C)[C@@H]1CC=C(CO)C[C@@H]21", "note": "[Example 5]", "values": [{"measurement": "IC50", "setting": "[5]", "result": 0.48, "unit": "nM"}, {"measurement": "Ki", "setting": "rat cortex membranes", "result": 1, "unit": "nM"}, {"measurement": "inhibition at 1 µM", "setting": "glutamate release [1]", "result": 20, "unit": "%"}, {"measurement": "Hypothermia ED−1°C. (necessary dose to achieve a maximum temperature drop of 1° C.)", "setting": "[2]", "result": 0.01, "unit": "mg/kg i.v."}, {"measurement": "% reduction in the infarct volume", "setting": "[3]; 0.01 mg/kg i.v. bolus directly", "result": 48, "unit": "%"}, {"measurement": "% reduction in the infarct volume", "setting": "[4]; 0.001 mg/kg i.v. bolus directly", "result": 58, "unit": "%"}]}, {"compound": "CCCCCCC(C)(C)c1ccc([C@@H]2C[C@H](O)CC[C@H]2CCCO)c(O)c1", "note": "[Example 15]", "values": [{"measurement": "Hypothermia ED−1°C. (necessary dose to achieve a maximum temperature drop of 1° C.)", "setting": "[2]", "result": 0.03, "unit": "mg/kg i.v."}]}, {"compound": "Cc1c(C(=O)c2cccc3ccccc23)c2cccc3c2n1[C@H](CN1CCOCC1)CO3", "note": "[Example 18]", "values": [{"measurement": "inhibition at 1 µM", "setting": "glutamate release [1]", "result": 50, "unit": "%"}, {"measurement": "Hypothermia ED−1°C. (necessary dose to achieve a maximum temperature drop of 1° C.)", "setting": "[2]", "result": 0.2, "unit": "mg/kg i.v."}, {"measurement": "% reduction in the infarct volume", "setting": "[3]; 0.03 mg/kg i.v. bolus directly", "result": 20, "unit": "%"}]}, {"compound": "CCCCCCC(C)(C)c1cc(O)c2c(c1)OC(C)(C)[C@@H]1CC=C(CO)C[C@@H]21", "note": "[HU210]", "values": [{"measurement": "neuroprotection in a craniocerebral trauma model", "setting": "[6]", "result": "non-neuroprotective"}]}, {"compound": "CCCCCCC(C)(C)c1cc(O)c2c(c1)OC(C)(C)[C@H]1CC=C(CO)C[C@H]21", "note": "[HU-211]", "values": [{"measurement": "activity on the cannabinoid receptor", "setting": "cannabinoid receptor", "result": "inactive"}]}, {"compound": "O=C(O)c1cc(=O)c2ccccc2[nH]1", "note": "[kynurenic acid]", "values": [{"measurement": "inhibition of glutamate release in vitro", "setting": "glutamate release [7]", "result": "markedly inhibit glutamate release"}]}, {"compound": "Cn1c(=O)c2[nH]cnc2n(C)c1=O", "note": "[theophylline]", "values": [{"measurement": "inhibition of glutamate release in vitro", "setting": "glutamate release [7]", "result": "markedly inhibit glutamate release"}, {"measurement": "neuroprotective action in vivo", "setting": "[8]", "result": "no neuroprotective action"}]}]}
